Test results: patent publication US11066446B2, “Cyclic peptide, affinity chromatography support, labeled antibody, antibody drug conjugate, and pharmaceutical preparation” (FUJIFILM Corporation, priority 2016, dated 2021)
Positions of bridges follow the written chain, without caps; N, C: chain ends. Non-standard residues stand in square brackets, D forms with d. Residues, ends and D or L forms follow the SMILES beside them. Triazole bridges read from a SMILES are 1,4-linked. No end group written: not given here. Lys(N3) = [N-]=[N+]=NCCCC[C@H](N)C(=O)O; Orn(N3) = [N-]=[N+]=NCCC[C@H](N)C(=O)O; Dap(N3) = [N-]=[N+]=NC[C@H](N)C(=O)O; Bpg = L-bishomopropargylglycine; Hpra = C#CCC[C@H](N)C(=O)O; Pra = C#CC[C@H](N)C(=O)O

Columns and labels:
[1] = Stability in human plasma (residual rate by mass spectrometry); details: 20 minutes at room temperature, 0-minute sample as 100%
Experimental: After 20 minutes, 100 μL of methanol (manufactured by Wako Pure Chemical Industries, Ltd.) was added thereto such that the reaction stopped. After being stirred, the solution was subjected to centrifugation, and the supernatant was collected and named 20-minute sample. Meanwhile, 100 μL of methanol was added to 20 μL of the human plasma, 2 μL of the aqueous solution of the cyclic peptide was then added thereto, the solution was stirred and subjected to centrifugation, and the supernatant was collected. The collected supernatant was named 0-minute sample.
By regarding the quantified value obtained from the 0-minute sample as 100%, the quantified value obtained from the 20-minute sample was calculated as a residual rate.

[2] = test system: human immunoglobulin G (IgG) antibodies; assay: Relative binding activity to human IgG antibodies by surface plasmon resonance on immobilized sensor chip; details: SPR (Biacore 3000, CM5 chip), 3,000 nM human IgG for 10 minutes at 25° C., relative to the cyclic peptide of Comparative Example 1 regarded as 1
Experimental: A commercially available CM5 (carboxymethyl dextran introduction-type, manufactured by GE Healthcare) sensor chip was set in Biacore 3000 (Biacore is a registered trademark) as a surface plasmon resonance device manufactured by GE Healthcare, a 4-(2-hydroxyethyl)-1-piperazineethanesulfonic acid (HEPES) buffer solution (20 mM HEPES-HCl, 150 mM NaCl, pH 7.4) for surface plasmon resonance (SPR) was stabilized at a flow rate of 10 μL/min, and 70 μL of an aqueous mixed solution of 0.2 M 1-(3-Dimethylaminopropyl)-3-ethylcarbodiimide (EDC) and […] of N-Hydroxysuccinimide (NHS) were injected thereinto. Thereafter, 100 μL of a sample solution of the cyclic peptide 1, which was diluted with a HEPES buffer solution at 0.2 g/L and treated with a polytetrafluoroethylene (PTFE) filter (manufactured by Advantec MFS, Inc.) having a diameter of 0.20 μm, was supplied to the sensor chip. Then, a blocking treatment was then performed on the sample solution by using an aqueous ethanolamine solution, and the sensor chip was washed with an aqueous sodium hydroxide solution, thereby performing immobilization. Likewise, 70 μL of an aqueous mixed solution of 0.2 M EDC and 0.04 M NHS was added to the same sensor chip without immobilizing the sample in another flow channel of the sensor chip, and then the blocking treatment and the washing treatment were performed. Hereinafter, the obtained immobilized sensor chip will be referred to as “immobilized sensor chip A”.
At 25° C., 3,000 nM of human immunoglobulin G (IgG) antibodies were added for 10 minutes to the immobilized sensor chip A prepared in (2) described above. Then, the antibody binding amount in the flow channel in which the cyclic peptide was immobilized immediately after the addition and in the flow channel in which the cyclic peptide was not immobilized was measured. From the difference in the antibody binding amount between the flow channel in which the cyclic peptide was immobilized and the flow channel in which the cyclic peptide was not immobilized and the amount of the immobilized cyclic peptide, the activity of the cyclic peptide was calculated. Furthermore, by regarding the activity of a cyclic peptide 5 in Comparative Example 1 as 1, the relative binding activity with respect to the human IgG antibodies was calculated.

[3] = Chemical resistance: rate of change in antibody binding amount of immobilized support before and after alkali treatment; format: physicochemical; details: peptide-immobilized HiTrap support; human IgG binding amount at 10% leak, before and after 0.05 M aqueous NaOH for 6 hours at 25° C.
Experimental: 1 mL of HiTrap NHS-activated HP Columns (coupling columns for ligand immobilization, manufactured by GE Healthcare) (HITRAP is a registered trademark) was reacted with 1 mL of 10 mg/mL cyclic peptide solution, which was prepared by dissolving the cyclic peptide 1 in an immobilization buffer (10% DMSO in 200 mM NaHCO3, 500 mM NaCl, pH 8.3), for 1 hour at 25° C. The reaction product was blocked by an aqueous ethanolamine solution and washed, thereby obtaining a cyclic peptide 1-immobilized support. Hereinafter, the obtained immobilized support will be referred to as “immobilized support A”.
The immobilized support A prepared in (4) described above was connected to a chromatography system AKTA avant 25 (manufactured by GE Healthcare) (AKTAAVANT is a registered trademark), and the antibody binding amount was measured. The columns were equilibrated using an equilibration solution (20 mM phosphoric acid buffer, 150 mM NaCl, pH 7.4), and then 20 mL of a 5 mg/mL human IgG antibody standard buffer solution (20 mM phosphoric acid buffer, 150 mM NaCl, pH 7.4) was injected thereinto at a flow rate of 0.21 mL/min. Thereafter, the columns were washed with 5 mL of a postloading wash solution (20 mM phosphoric acid buffer, 150 mM NaCl, pH 7.4) caused to flow at the same flow rate and then washed with 5 mL of a pre-elution wash solution (20 mM phosphoric acid buffer, 1 M NaCl, pH 7.4) at the same flow rate. Then, 5 mL of an elution solution (100 mM citric acid buffer, pH 3.2) was caused to flow at the same flow rate. Subsequently, 5 mL of a cleaning in place (CIP) solution (0.1 M sodium hydroxide) was caused to flow at the same flow rate, and then 5 mL of a reequilibration solution (20 mM phosphoric acid buffer, 150 mM NaCl, pH 7.4) was caused to flow at the same flow rate. At this time, by using an immunoglobulin G (IgG) elution peak obtained by monitoring absorbance at 280 nm, the amount of antibodies binding to the support until 10% of the antibody stock solution leaked out of the support was measured as the antibody binding amount. Then, the immobilized support A was filled with a 0.05 M aqueous NaOH solution for 6 hours at 25° C. and left to stand, the antibody binding amount of the support was then measured in the same manner, and a rate of change in the binding amount was calculated from the antibody binding amount before and after the alkali treatment.

| Relative binding activity ([2]; listed as Example 16) | Relative binding activity ([2]; listed as Example 9) | Molecule | Stability in plasma (residual rate) [1] | Relative binding activity [2] | Chemical resistance (rate of change in the binding amount) [3] |
| --- | --- | --- | --- | --- | --- |
|  |  | CC(C)C[C@@H]1NC(=O)[C@H](Cc2c[nH]cn2)NC(=O)[C@H](Cc2ccc(O)cc2)NC(=O)[C@H](C)NC(=O)[C@@H](NC(=O)[C@@H](N)CC(=O)O)CCc2cn(nn2)C[C@@H](C(=O)N[C@H](C(=O)N[C@@H](CCCCN)C(=O)N[C@@H](CCCCN)C(=O)O)[C@@H](C)O)NC(=O)[C@H](Cc2c[nH]c3ccccc23)NC(=O)[C@H](C(C)C)NC(=O)[C@H](CC(C)C)NC(=O)[C@H](CCC(=O)O)NC(=O)CNC1=O [Cyclic peptide 4, Asp-[Hpg]-Ala-Tyr-His-Leu-Gly-Glu-Leu-Val-Trp-[Ala(N3)]-Thr-Lys-Lys] (H-D[Hpra]AYHLGELVW[Dap(N3)]TKK-OH; triazole 2-12; N-terminus and C-terminus assumed) | A (The rate of change in the binding amount was higher than 90%) |  |  |
|  |  | CC(C)C[C@@H]1NC(=O)[C@H](CCC(=O)O)NC(=O)CNC(=O)[C@H](CCCNC(=N)N)NC(=O)[C@H](Cc2c[nH]cn2)NC(=O)[C@H](Cc2ccc(O)cc2)NC(=O)[C@H](C)NC(=O)[C@@H](NC(=O)[C@@H](N)CC(=O)O)CCC(=O)NCCCC[C@@H](C(=O)N[C@H](C(=O)N[C@@H](CCCCN)C(=O)N[C@@H](CCCCN)C(=O)O)[C@@H](C)O)NC(=O)[C@H](Cc2c[nH]c3ccccc23)NC(=O)[C@H](C(C)C)NC1=O [Cyclic peptide 17, Asp-[Glu]-Ala-Tyr-His-Arg-Gly-Glu-Leu-Val-Trp-[Lys]-Thr-Lys-Lys, reference compound] (HELM PEPTIDE1{D.E.A.Y.H.R.G.E.L.V.W.K.T.K.K}$PEPTIDE1,PEPTIDE1,2:R3-12:R3$$$V2.0; N-terminus and C-terminus assumed) | E (The rate of change in the binding amount was equal to or lower than 50%) |  |  |
|  |  | Asp-[Lys(N3)]-Ala-Tyr-His-Arg-Gly-Glu-Leu-Val-Trp-[Bpg]-Thr-Lys-Lys (D[Lys(N3)]AYHRGELVW[Bpg]TKK; triazole 2-12) [Cyclic peptide 1] | A (The rate of change in the binding amount was higher than 90%) | A (The relative binding activity was higher than 800% of the binding activity of the cyclic peptide 5) | B (The rate of change in the binding amount was higher than 80% and equal to or lower than 90%) |
|  |  | Asp-[Lys(N3)]-Ala-Tyr-His-Leu-Gly-Glu-Leu-Val-Trp-[Bpg]-Thr-Lys-Lys (D[Lys(N3)]AYHLGELVW[Bpg]TKK; triazole 2-12) [Cyclic peptide 2] | A (The rate of change in the binding amount was higher than 90%) | A (The relative binding activity was higher than 800% of the binding activity of the cyclic peptide 5) | A (The rate of change in the binding amount was higher than 90%) |
| C or a higher grade |  | Asp-[Nva(N3)]-Ala-Tyr-His-Leu-Gly-Glu-Leu-Val-Trp-[Bpg]-Thr-Lys-Lys (D[Orn(N3)]AYHLGELVW[Bpg]TKK; triazole 2-12) [Cyclic peptide 16, [Nva(N3)] and [Bpg] cross-linked through a triazole bond] |  | B (The relative binding activity was higher than 400% and equal to or lower than 800% of the binding activity of the cyclic peptide 5) | A (The rate of change in the binding amount was higher than 90%) |
|  | C or a higher grade | Asp-[Pra]-Ala-Tyr-His-Leu-Gly-Glu-Leu-Val-Trp-[Lys(N3)]-Thr-Lys-Lys (D[Pra]AYHLGELVW[Lys(N3)]TKK; triazole 2-12) [Cyclic peptide 9, [Pra] and [Lys(N3)] cross-linked through a triazole bond] |  | B (The relative binding activity was higher than 400% and equal to or lower than 800% of the binding activity of the cyclic peptide 5) | A (The rate of change in the binding amount was higher than 90%) |
|  |  | Lys-Lys-Lys-Asp-[Hpg]-Ala-Tyr-His-Leu-Gly-Glu-Leu-Val-Trp-[Ala(N3)]-Thr (KKKD[Hpra]AYHLGELVW[Dap(N3)]T; triazole 5-15) [Cyclic peptide 5, [Hpg] and [Ala(N3)] cross-linked through a triazole bond] |  | A (The relative binding activity was higher than 800% of the binding activity of the cyclic peptide 5) | A (The rate of change in the binding amount was higher than 90%) |
